{"source": "patent US8378104B2", "about": "(OSI Pharmaceuticals, LLC, priority 2010, dated 2013)", "key": {"TAK1-TAB1 fusion protein": {"target": "T1, TAK1-TAB1 fusion protein (Homo sapiens, UniProt O43318)", "T1 construct": "purchased Carna", "T1 sequence (O43318 with tags, fused parts or gaps limits assumed)": "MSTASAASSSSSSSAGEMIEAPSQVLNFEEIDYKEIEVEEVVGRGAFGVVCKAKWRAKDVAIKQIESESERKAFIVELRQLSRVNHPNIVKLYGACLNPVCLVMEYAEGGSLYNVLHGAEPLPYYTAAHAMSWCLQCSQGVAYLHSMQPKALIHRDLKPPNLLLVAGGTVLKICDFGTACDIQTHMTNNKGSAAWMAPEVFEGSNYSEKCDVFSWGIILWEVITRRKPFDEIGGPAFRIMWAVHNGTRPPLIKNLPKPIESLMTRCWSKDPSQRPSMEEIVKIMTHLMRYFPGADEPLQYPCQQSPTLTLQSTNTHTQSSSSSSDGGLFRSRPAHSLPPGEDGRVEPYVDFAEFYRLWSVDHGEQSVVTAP", "experiment": "TAK1 biochemical assay (AlphaScreen, GST-MAP2K7 substrate)", "conditions": "TAK1-TAB1 fusion protein, GST-MAP2K7 substrate; read-out: mean TAK1 IC50 (Col. A)"}, "pJNK in HCT-116 cells": {"tested_on": "pJNK in HCT-116 cells", "experiment": "Phospho-JNK (Thr183/Tyr185) Meso Scale ELISA assay, TNFα-stimulated HCT-116 cells", "assay_type": "cell-based", "conditions": "Homo sapiens, read-out: mean HCT-116 pJNK ELISA IC50 (Col. B)", "procedure": "Detailed below are ELISA assays for pJNK and p38, and a TAK1 biochemical assay. […] In Table 1, Col.\nPhospho-JNK (Thr183/Tyr185) Meso Scale ELISA Assay\n• 1. Plate HCT-116 cells at 25,000 per well in 100 uL in 96 well clear dishes in normal growth medium. Day 2: • 1. Aspirate medium and replace with 90 μl reduced serum growth medium (1% FCS), incubate for 2 hours at 37° C. • 2. Make drugs at 10× in reduced serum medium and add 10 uL per well. • 3. Incubate at 37° C. for 4 hrs. • 4. Bring capture plates to room temperature. • 5. Block with 150 μl Blocking Solution (provided with kit) (600 mg Blocker A into 20 mL 1× Wash Buffer per plate) at room temperature with shaking. • 6. Wash plates 4× with 200 μl 1× wash buffer (10× provided with kit) before transferring lysates. • 7. Dilute TNFα to […] in reduced serum medium (this makes a 10× working stock). • 8. Add 10 μl TNFα to all wells except negative control wells, final concentration is 10 ng/mL. • 9. Incubate at 37° C. for 10 minutes. • 10. Remove medium by flicking into sink • 11. Wash cells with 100 uL ice cold PBS. • 12. Remove PBS by flicking into sink and patting on paper towels. • 13. Lyse cells in 50 μl ice cold 1× Complete Lysis Buffer plus Phosphatase and Protease inhibitors (all provided with kit) (10 mL Tris Lysis Buffer+200 μl Protease inhibitor solution+100 μl Phosphatase inhibitor I+100 μl Phosphatase inhibitor II). • 14. Incubate with shaking at 4° C. for 30 minutes. • 15. Transfer 45 μl to capture plate, cover with adhesive cover, and incubate at 4° C. over night with shaking. • Day 3: • 1. Wash plates 4× with 200 μl 1× wash buffer (10× provided with kit). • 2. […] Incubate at room temperature with shaking for 1 hour. • 4. Wash 4× with 200 μl 1× Wash Buffer. • 5. […] Read on Sector Imager. Phospho-p38 Meso Scale ELISA Assay Day 1: • 1. Plate HCT-116 cells at 25,000 per well in 100 uL in 96 well clear dishes in normal growth medium. zday 2: • 1. Aspirate medium and replace with 90 μl reduced serum growth medium (1% FCS), incubate for 2 hours at 37° C. • 2. Make drugs at 10× in reduced serum medium and add 10 uL per well. • 3. Incubate at 37° C. for 4 hrs. • 4. Bring capture plates to room temperature. • 5. Block with 150 μl Blocking Solution (provided with kit) (600 mg Blocker A into 20 mL 1× Wash Buffer per plate) at room temperature with shaking. • 6. Wash plates 4× with 200 μl 1× wash buffer (10× provided with kit) before transferring lysates. • 7. Dilute TNFα to […] in reduced serum medium (this makes a 10× working stock). • 8. Add 10 μl TNFα to all wells except negative control wells, final concentration is 10 ng/mL. • 9. Incubate at 37° C. for 10 minutes. • 10. Remove medium by flicking into sink • 11. Wash cells with 100 uL ice cold PBS. • 12. Remove PBS by flicking into sink and patting on paper towels. • 13. Lyse cells in 50 μl ice cold 1× Complete Lysis Buffer plus phosphatase and protease inhibitors (all provided with kit) (10 mL Tris Lysis Buffer+200 μl Protease inhibitor solution+100 μl Phosphatase inhibitor I+100 μl Phosphatase inhibitor II). • 14. Incubate with shaking at 4° C. for 30 minutes. • 15. Dilute lysates before transferring to capture plate with 100 μl Complete p38 Lysate • Dilution Buffer (provided with kit) (10 mL of Diluent 20±200 μl Protease inhibitor solution+100 μl Phosphatase inhibitor I+100 μl Phosphatase inhibitor II). • 16. Transfer 50 μl of diluted lysates to capture plate, cover with adhesive cover, and incubate at 4° C. over night with shaking. Day 3: • 1. Wash plates 4× with 200 μl 1× wash buffer (10× provided with kit). • 2. […] Incubate at room temperature with shaking for 1 hour. • 4. Wash 4× with 200 μl 1× Wash Buffer. • 5. […] Read on Sector Imager. TAK1 Biochemical Assay"}}, "note": "pIC50: −log10 of the molar value.", "data": [{"smiles": "Nc1ncc(-c2cnn([C@H]3CC[C@H](O)C3)c2)c2cc(-c3csc4cnccc34)oc12", "note": "[Example 307, (1S,3S)-3-[4-(7-amino-2-thieno[2,3-c]pyridin-3-yl-furo[2,3-c]pyridin-4-yl)-pyrazol-1-yl]-cyclopentanol]", "values": [{"measurement": "pIC50", "setting": "TAK1-TAB1 fusion protein", "value": "> 7.00"}, {"measurement": "pIC50", "setting": "pJNK in HCT-116 cells", "value": "6.00 to 7.00"}]}, {"smiles": "Nc1ncc(-c2cnn([C@@H]3CC[C@@H](O)C3)c2)c2cc(-c3csc4cnccc34)oc12", "note": "[Example 308, (1R,3R)-3-[4-(7-amino-2-thieno[2,3-c]pyridin-3-yl-furo[2,3-c]pyridin-4-yl)-pyrazol-1-yl]-cyclopentanol]", "values": [{"measurement": "pIC50", "setting": "TAK1-TAB1 fusion protein", "value": "> 7.00"}, {"measurement": "pIC50", "setting": "pJNK in HCT-116 cells", "value": "6.00 to 7.00"}]}, {"smiles": "Nc1ncc(-c2cnn([C@@H]3C[C@H]4CC[C@@H](C3)N4)c2)c2cc(-c3csc4cnccc34)oc12", "note": "[Example 320, 4-{1-[(3-exo)-8-azabicyclo[3.2.1]oct-3-yl]-1H-pyrazol-4-yl}-2-(thieno[2,3-c]pyridin-3-yl)furo[2,3-c]pyridin-7-amine]", "values": [{"measurement": "pIC50", "setting": "TAK1-TAB1 fusion protein", "value": "> 7.00"}, {"measurement": "pIC50", "setting": "pJNK in HCT-116 cells", "value": "6.00 to 7.00"}]}, {"smiles": "Nc1ncc(-c2cnn([C@@H]3C[C@H]4CC[C@@H](C3)N4)c2)c2cc(-c3cccc4cnsc34)oc12", "note": "[Example 321, 4-{1-[(3-exo)-8-azabicyclo[3.2.1]oct-3-yl]-1H-pyrazol-4-yl}-2-(1,2-benzisothiazol-7-yl)furo[2,3-c]pyridin-7-amine]", "values": [{"measurement": "pIC50", "setting": "TAK1-TAB1 fusion protein", "value": "> 7.00"}, {"measurement": "pIC50", "setting": "pJNK in HCT-116 cells", "value": "6.00 to 7.00"}]}, {"smiles": "Nc1ncc(-c2cnn([C@@H]3C[C@H]4CC[C@@H](C3)N4C=O)c2)c2cc(-c3csc4cnccc34)oc12", "note": "[Example 324, (3-exo)-3-{4-[7-amino-2-(thieno[2,3-c]pyridin-3-yl)furo[2,3-c]pyridin-4-yl]-1H-pyrazol-1-yl}-8-azabicyclo[3.2.1]octane-8-carbaldehyde]", "values": [{"measurement": "pIC50", "setting": "TAK1-TAB1 fusion protein", "value": "> 7.00"}, {"measurement": "pIC50", "setting": "pJNK in HCT-116 cells", "value": "> 7.00"}]}, {"smiles": "CC(=O)N1[C@@H]2CC[C@H]1C[C@H](n1cc(-c3cnc(N)c4oc(-c5csc6cnccc56)cc34)cn1)C2", "note": "[Example 325, 1-[(3-exo)-3-{4-[7-amino-2-(thieno[2,3-c]pyridin-3-yl)furo[2,3-c]pyridin-4-yl]-1H-pyrazol-1-yl}-8-azabicyclo[3.2.1]oct-8-yl]ethanone]", "values": [{"measurement": "pIC50", "setting": "TAK1-TAB1 fusion protein", "value": "> 7.00"}, {"measurement": "pIC50", "setting": "pJNK in HCT-116 cells", "value": "> 7.00"}]}, {"smiles": "Nc1ncc(-c2cnn([C@@H]3C[C@H]4CC[C@@H](C3)N4C=O)c2)c2cc(-c3cccc4cnsc34)oc12", "note": "[Example 326, (3-exo)-3-{4-[7-amino-2-(1,2-benzisothiazol-7-yl)furo[2,3-c]pyridin-4-yl]-1H-pyrazol-1-yl}-8-azabicyclo[3.2.1]octane-8-carbaldehyde]", "values": [{"measurement": "pIC50", "setting": "TAK1-TAB1 fusion protein", "value": "> 7.00"}, {"measurement": "pIC50", "setting": "pJNK in HCT-116 cells", "value": "> 7.00"}]}, {"smiles": "CC(=O)N1[C@@H]2CC[C@H]1C[C@H](n1cc(-c3cnc(N)c4oc(-c5cccc6cnsc56)cc34)cn1)C2", "note": "[Example 327, 1-[(3-exo)-3-{4-[7-amino-2-(1,2-benzisothiazol-7-yl)furo[2,3-c]pyridin-4-yl]-1H-pyrazol-1-yl}-8-azabicyclo[3.2.1]oct-8-yl]ethanone]", "values": [{"measurement": "pIC50", "setting": "TAK1-TAB1 fusion protein", "value": "> 7.00"}, {"measurement": "pIC50", "setting": "pJNK in HCT-116 cells", "value": "> 7.00"}]}, {"smiles": "CN1[C@@H]2CC[C@H]1C[C@H](n1cc(-c3cnc(N)c4oc(-c5csc6cnccc56)cc34)cn1)C2", "note": "[Example 328, 4-{1-[(3-exo)-8-methyl-8-azabicyclo[3.2.1]oct-3-yl]-1H-pyrazol-4-yl}-2-(thieno[2,3-c]pyridin-3-yl)furo[2,3-c]pyridin-7-amine]", "values": [{"measurement": "pIC50", "setting": "TAK1-TAB1 fusion protein", "value": "> 7.00"}, {"measurement": "pIC50", "setting": "pJNK in HCT-116 cells", "value": "6.00 to 7.00"}]}, {"smiles": "CC(C)N1[C@@H]2CC[C@H]1C[C@H](n1cc(-c3cnc(N)c4oc(-c5csc6cnccc56)cc34)cn1)C2", "note": "[Example 329, 4-{1-[(3-exo)-8-(propan-2-yl)-8-azabicyclo[3.2.1]oct-3-yl]-1H-pyrazol-4-yl}-2-(thieno[2,3-c]pyridin-3-yl)furo[2,3-c]pyridin-7-amine]", "values": [{"measurement": "pIC50", "setting": "TAK1-TAB1 fusion protein", "value": "> 7.00"}, {"measurement": "pIC50", "setting": "pJNK in HCT-116 cells", "value": "6.00 to 7.00"}]}, {"smiles": "CN1[C@@H]2CC[C@H]1C[C@H](n1cc(-c3cnc(N)c4oc(-c5cccc6cnsc56)cc34)cn1)C2", "note": "[Example 330, 2-(1,2-benziso-thiazol-7-yl)-4-{1-[(3-exo)-8-methyl-8-azabicyclo[3.2.1]oct-3-yl]-1H-pyrazol-4-yl}furo[2,3-c]pyridin-7-amine]", "values": [{"measurement": "pIC50", "setting": "TAK1-TAB1 fusion protein", "value": "> 7.00"}, {"measurement": "pIC50", "setting": "pJNK in HCT-116 cells", "value": "6.00 to 7.00"}]}]}
